Laboratory results published in US20150050388A1, “SYNBIOTIC FOOD COMPOSITION CONTAINING TAGATOSE AND PROBIOTIC LACTIC ACID BACTERIA” (CJ CHEILJEDANG CORPORATION, priority 2012, published 2015).

How the values were obtained:
L. casei DN114001 = experiment: Capacity of using tagatose: live cell count after culture in minimal medium with added sugar; type: cell-based, Lactobacillus casei
Description: (§1) Pure culture solutions (1% culture solution in a stationary-phase in which a cell count of each of the strains is about 10^8 to 10^9 cfu/ml) of a total of 385 lactic acid bacteria strains were inoculated in selective media, respectively, and cultured in an incubator at 37° C. for 18 hours, followed by sub-culturing three times. Then, experiments proceeded at a state in which viability of the strain was optimal.
(§2) In order to evaluate the capacity of using tagatose of each of the lactic acid bacteria, a minimal medium composed of 5 g of peptone, 2.5 g of sodium acetate trihydrate, 0.5 ml of magnesium sulfate heptahydrate, 0.5 ml of manganese sulfate tetrahydrate, 5 ml of Tween 80, 1 g of diammonium citrate, 1 g of dipotassium phosphate, and 480 ml of distilled water was used.
(§3) After the medium was sterilized at 121° C. for 15 minutes and divided into three samples, 20 ml of 50% tagatose solution, 20 ml of 50% glucose solution, and 20 ml of 50% fructooligosaccharide solution (FOS) were added to each of the three samples, thereby preparing liquid media.
(§4) 1% of each of the lactic acid bacteria strains cultured as described above was inoculated in the prepared medium and cultured in an incubator at 37° C. for 24 hours. Thereafter, absorbance of each of the cultured strains was measured using an ELISA reader, and a cell count was measured through plate culture using a dilution solution, thereby evaluating the capacity of using tagatose.

L. casei Shirota = experiment: as above; type: cell-based, Lactobacillus casei
Description: as §1, §2, §3, §4

L. casei-01® = experiment: as above; type: cell-based, Lactobacillus casei
Description: as §1, §2, §3, §4

L. casei = experiment: as above; type: cell-based, Lactobacillus casei; settings: for Log10 Value of Live Cell Count: 24h, 37° C., minimal medium with the named sugar; for Tagatose/Glucose: ratio of 24h log10 live cell counts
Description: as §1, §2, §3, §4

L. rhamnosus GG = experiment: as above; type: cell-based, Lactobacillus rhamnosus; settings: for Log10 Value of Live Cell Count: 24h, 37° C., minimal medium with the named sugar; for Tagatose/Glucose: ratio of 24h log10 live cell counts
Description: as §1, §2, §3, §4

L. rhamnosus = experiment: as above; type: cell-based, Lactobacillus rhamnosus; settings: for Log10 Value of Live Cell Count: 24h, 37° C., minimal medium with the named sugar; for Tagatose/Glucose: ratio of 24h log10 live cell counts
Description: as §1, §2, §3, §4

P. pentosaceus = experiment: as above; type: cell-based, Pediococcus pentosaceus; settings: for Log10 Value of Live Cell Count: 24h, 37° C., minimal medium with the named sugar; for Tagatose/Glucose: ratio of 24h log10 live cell counts
Description: as §1, §2, §3, §4

L. farciminis = experiment: as above; type: cell-based, Lactobacillus farciminis; settings: strain 18 (L. farciminis)
Description: as §1
as §2, with “used. […]” for “used.”
as §4

L. acidophilus = experiment: as above; type: cell-based, Lactobacillus acidophilus; settings: strain 19 (L. acidophilus)
Description: as §1
as §2, with “used. […]” for “used.”
as §4

[1] = system: lactic acid bacteria strains efficiently using tagatose; experiment: Growth curves of lactic acid bacteria on other prebiotics (Example 3); type: cell-based; settings: 9 strains, 37° C., live cell count at 0, 5, 10, 24 and 48 hours
Description: Capacity of using other prebiotics except for tagatose was evaluated, compared and analyzed using 9 strains having excellent capacity of using tagatose among the 19 strains identified in Example 2.
For the present evaluation, at the time of preparing the medium used in Example 1, as a positive control group, glucose was used except for tagatose, and as negative control groups, fructooligosaccharide, lactitol, lactulose, and xylitol were used.
Each of the Lactobacillus casei (FIG. 1), Lactobacillus casei Shirota (FIG. 2), Lactobacillus casei DN114001 (FIG. 3), Lactobacillus casei-01® (FIG. 4), Lactobacillus rhamnosus (FIG. 5), Lactobacillus rhamnosus GG (FIG. 6), Pediococcus pentosaceus (FIG. 7), Lactobacillus farciminis (FIG. 8), and Lactobacillus acidophilus (FIG. 9) that were identified in Example 2 was inoculated in each of the media and cultured at 37° C. for 0, 5, 10, 24, and 48 hours. Then, a live cell count thereof was measured, such that a growth curve of each of the strains was obtained.

[2] = 24h, 37° C., minimal medium with the named sugar
[3] = ratio of 24h log10 live cell counts

For `O=C(CO)[C@@H](O)[C@@H](O)[C@H](O)CO` [Tagatose, tagatose], the “capacity of using tagatose” value (L. casei DN114001; L. casei DN114001, as compared to the other strains of Table 1) was “significantly excellent capacity of using tagatose”, the “Log10 Value of Live Cell Count” value (L. casei DN114001; strain 8 (L. casei DN114001), 24h, 37° C., minimal medium with the named sugar) was 8.953 and the Tagatose/Glucose (L. casei DN114001; strain 8 (L. casei DN114001), ratio of 24h log10 live cell counts) was 101.7%. For the same compound, the “capacity of using tagatose” value (L. casei Shirota; L. casei Shirota, as compared to the other strains of Table 1) was “significantly excellent capacity of using tagatose”, the “Log10 Value of Live Cell Count” value (L. casei Shirota; strain 7 (L. casei Shirota), 24h, 37° C., minimal medium with the named sugar) was 9.054 and the Tagatose/Glucose (L. casei Shirota; strain 7 (L. casei Shirota), ratio of 24h log10 live cell counts) was 101.4%. For the same compound, the “capacity of using tagatose” value (L. casei-01®; L. casei-01, as compared to the other strains of Table 1) was “significantly excellent capacity of using tagatose”, the “Log10 Value of Live Cell Count” value (L. casei-01®; strain 9 (L. casei-01®), 24h, 37° C., minimal medium with the named sugar) was 9.068 and the Tagatose/Glucose (L. casei-01®; strain 9 (L. casei-01®), ratio of 24h log10 live cell counts) was 101.4%. The “Log10 Value of Live Cell Count” value (L. casei; strain 1 (L. casei)) was 7.882, the Tagatose/Glucose (L. casei; strain 1 (L. casei)) was 100.3% and the “Log10 Value of Live Cell Count” value (L. casei; strain 2 (L. casei)) was 8.137. The Tagatose/Glucose (L. casei; strain 2 (L. casei)) was 100.1%, the “Log10 Value of Live Cell Count” value (L. casei; strain 3 (L. casei)) was 8.240 and the Tagatose/Glucose (L. casei; strain 3 (L. casei)) was 99.6%. The “Log10 Value of Live Cell Count” value (L. casei; strain 4 (L. casei)) was 8.424, the Tagatose/Glucose (L. casei; strain 4 (L. casei)) was 99.0% and the “Log10 Value of Live Cell Count” value (L. casei; strain 5 (L. casei)) was 8.449. The Tagatose/Glucose (L. casei; strain 5 (L. casei)) was 93.1%, the “Log10 Value of Live Cell Count” value (L. casei; strain 6 (L. casei)) was 8.767 and the Tagatose/Glucose (L. casei; strain 6 (L. casei)) was 98.8%. For the same compound, the “capacity of using tagatose” value (L. rhamnosus GG; L. rhamnosus GG, as compared to the other strains of Table 1) was “significantly excellent capacity of using tagatose”, the “Log10 Value of Live Cell Count” value (L. rhamnosus GG; strain 14 (L. rhamnosus GG)) was 8.548 and the Tagatose/Glucose (L. rhamnosus GG; strain 14 (L. rhamnosus GG)) was 105.0%. For the same compound, the “Log10 Value of Live Cell Count” value (L. rhamnosus GG; strain 15 (L. rhamnosus GG)) was 8.822, the Tagatose/Glucose (L. rhamnosus GG; strain 15 (L. rhamnosus GG)) was 103.5% and the “Log10 Value of Live Cell Count” value (L. rhamnosus; strain 10 (L. rhamnosus)) was 7.939. For the same compound, the Tagatose/Glucose (L. rhamnosus; strain 10 (L. rhamnosus)) was 98.5%, the “Log10 Value of Live Cell Count” value (L. rhamnosus; strain 11 (L. rhamnosus)) was 8.031 and the Tagatose/Glucose (L. rhamnosus; strain 11 (L. rhamnosus)) was 99.2%. The “Log10 Value of Live Cell Count” value (L. rhamnosus; strain 12 (L. rhamnosus)) was 8.059, the Tagatose/Glucose (L. rhamnosus; strain 12 (L. rhamnosus)) was 98.5% and the “Log10 Value of Live Cell Count” value (L. rhamnosus; strain 13 (L. rhamnosus)) was 8.169. For the same compound, the Tagatose/Glucose (L. rhamnosus; strain 13 (L. rhamnosus)) was 99.5%, the “Log10 Value of Live Cell Count” value (P. pentosaceus; strain 16 (P. pentosaceus)) was 8.798 and the Tagatose/Glucose (P. pentosaceus; strain 16 (P. pentosaceus)) was 99.1%. The “Log10 Value of Live Cell Count” value (P. pentosaceus; strain 17 (P. pentosaceus)) was 8.953, the Tagatose/Glucose (P. pentosaceus; strain 17 (P. pentosaceus)) was 98.8% and the “Log10 Value of Live Cell Count” value (L. farciminis; [2]) was 8.601. The Tagatose/Glucose (L. farciminis; [3]) was 99.2%, the “Log10 Value of Live Cell Count” value (L. acidophilus; [2]) was 7.913 and the Tagatose/Glucose (L. acidophilus; [3]) was 98.4%.
With `OC[C@@H](O)[C@@H](O[C@@H]1O[C@H](CO)[C@H](O)[C@H](O)[C@H]1O)[C@H](O)[C@@H](O)CO` [lactitol] the “capacity of using the sugar (comparison of growth curves)” value [1] was “low”.
